Measured values from patent US9770421B2, “Uses for idebenone and related benzoquinones in metabolic disorders and other PPAR α/γ related diseases and conditions” (INDANIO BIOSCIENCE INC., priority 2013, dated 2017).
Entries after “also recorded” stand apart in the source; their conditions may differ.

Legend:
Type in all cases: in vivo
C57Bl/6 db/db mice = assay: db/db mouse study (NAFLD features); conditions: for Decrease in liver weight in comparison to vehicle treated mice: 3 weeks
Protocol: Db/db study: Forty male C57Bl/6 db/db mice (called B6.BKS(D)-Lepr db/J) were ordered from Jackson Laboratories (#000697) at 7 weeks of age. Mice were housed individually with free access to food (2016 Teklad Global 16% Protein Rodent Diet) and water on a 14 hour light/dark cycle (6 a.m. to 8 p.m. light). […] Food was exchanged on a daily bases. Harlan corn cob bedding was provided and was changed every week or as needed. Following a 1 week acclimation, 32 mice were chosen based on desired body weight range. Remaining mice were euthanized. Mice were randomized by body weight into four treatment groups (n=8) by body weight. Dosing occurred for 21 days. Mice were euthanized by CO2 euthanasia and livers were fixed in neutral buffered formalin (NBF) for 24 h, followed by a one day fixation in 30% Sucrose and 10% Sucrose. Oil O Red staining was performed through the Pathology Research Program at the University Health Network in Toronto [46]. [table] 100 mg of db/db livers were homogenized in RIPA buffer and protein concentration was quantified using a BCA protein assay kit (Cell signalling #7780) followed by measurement of ‘Thiobarbituric Acid Reactive Substances’ (TBARS) using a TBARS assay kit (Cayman Chemicals #10009055). Total RNA was extracted from 100 mg of db/db livers using RNA STAT-60 (Tel-Test, Inc.), treated with DNase I (RNase-free, Roche), and reverse transcribed into cDNA with random hexamers using the High Capacity Reverse transcription system (Applied Biosystems, ABI). Primers used are shown below and were validated as previously described. Real-time QPCR reactions were performed on an ABI 7900 in 384-well plates containing 12.5 ng cDNA, 150 nM of each primer, and 5 μl 2×SYBR Green PCR Master Mix (ABI) in a 10 μl total volume. Relative mRNA levels were calculated using the comparative Ct method normalized to cyclophilin mRNA.

[1] = system: GFP-expressing leukocytes recruited in response to CuSO4; assay: Zebrafish inflammation assay (CuSO4)
Protocol: Assay was performed as described in [47]. Fifteen dechorionated 55 hpf (hours post fertilization) embryos were transferred in each well of 6-well plates in 6 ml of embryo water. Idebenone was added at increasing concentrations (0.25, 0.75, 1.5, 3 and 5 μM). Embryos were incubated in the dark for 1 hr at 28 C, followed by a second 40 min incubation with copper sulfate (CuSO4) at a final concentration of 10 μM at 28 C in the dark. Embryos were then transferred to Eppendorf tubes and fixed in 4% paraformaldehyde in 1×PBS overnight at 4 C in the dark. Numbers of GFP+ cells were counted along the lateral line/neuromast clusters.
Previous studies have shown that PPAR agonists have anti-inflammatory properties, and can be used to treat a variety of inflammatory responses. To test if this is also true for idebenone, we used a zebrafish model of inflammation. Exposure of fish larvae to copper sulfate causes non-invasive damage to neuromast cells, which form external clusters along the lateral midline. This inflammation can be visualized via the recruitment of GFP-expressing leukocytes. As expected, this recruitment of GFP positive cells could be alleviated by addition of the known anti-inflammatory agent ibuprofen (FIG. 11).

PPARα = biological target: T1, PPARα (Homo sapiens, UniProt Q07869); assay: PPARα ligand trap zebrafish GFP reporter assay; set-up: pLT PPARα (aa 178-468) and pLT PPAR γ (aa 188-477) lines; expressed in transfected cells; host or cells: transgenic zebrafish embryos (ligand-trap line); conditions: transgenic embryos, 48 hpf
T1 sequence (Q07869 178-468): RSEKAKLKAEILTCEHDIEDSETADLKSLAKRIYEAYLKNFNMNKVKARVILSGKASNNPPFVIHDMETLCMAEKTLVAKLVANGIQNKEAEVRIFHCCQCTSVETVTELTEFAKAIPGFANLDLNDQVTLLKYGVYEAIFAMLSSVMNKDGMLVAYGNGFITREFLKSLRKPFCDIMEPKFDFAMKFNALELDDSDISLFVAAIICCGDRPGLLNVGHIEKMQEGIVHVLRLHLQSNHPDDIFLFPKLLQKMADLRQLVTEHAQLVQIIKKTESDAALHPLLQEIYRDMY
Protocol: Zebrafish were maintained at 28.5° C. on a 14/10 hour light/dark cycle and staged according to hours (h) or days (d) postfertilization. To generate pLT PPARα (aa 178-468) and pLT PPAR γ (aa 188-477) lines, plasmids were pre-digested with I-SceI (0.8 μg DNA, 1 μl I-SceI (New England Biolabs) 2 μl 10×I-SceI buffer, 1 μl BSA) for 20 min at 37° C. Digested DNA was adjusted with 0.1% phenol red. 4.6 nl of DNA solution was injected into the blastomeres of early one-cell stage embryos.
F0 fish were crossed with WT fish to identify germ-line transformed animals, as determined by agonist treatments and GFP expression. F1 progeny showing strong and consistent GFP responses were selected for F2 homozygote production. To avoid reporter GFP silencing of stable transgenic LT lines, homozygous fish showing strong and consistent GFP responses were selected for continued propagation of next generations.
PPARγ ligand trap zebrafish screens were performed under optimized conditions in 96-well format using the ImageXpress Velos Laser Scanning Cytometer. 1 or 2 dpf embryos were heat induced (28→37° C.) for 30 minutes, de-chorionated and then arrayed in 96-well plates (5 per well). […] Embryos were incubated at 28° C. for 14 h, anesthetized with Tricaine (Sigma, Cat. # A-5040) and then analyzed for GFP fluorescence using the ImageXpress Velos Laser Scanning Cytometer.

For `COC1=C(OC)C(=O)C(CCCCCCCCCCO)=C(C)C1=O` [Idebenone, 2-(10-hydroxydecyl)-5,6-dimethoxy-3-methyl-2,5-cyclohexadiene-1,4-dione], the “Histological NAFLD features of liver” value (C57Bl/6 db/db mice; 3 weeks in food) was “reversed these histological NAFLD”, the “Decrease in liver weight in comparison to vehicle treated mice” value (C57Bl/6 db/db mice; 900 mpk in food) was 3% and the “Decrease in liver weight in comparison to vehicle treated mice” value (C57Bl/6 db/db mice; 1800 mpk in food) was 6.5%. For the same compound, the “Liver ADFP mRNA expression (QPCR)” value (C57Bl/6 db/db mice; 21 days) was “down regulated”, the “Liver PLIN4 mRNA expression (QPCR)” value (C57Bl/6 db/db mice; 21 days) was “down regulated” and the “Liver lipid content (Oil Red O staining)” value (C57Bl/6 db/db mice; 21 days, 900/1800 mpk idebenone, 10 mpk rosiglitazone) was “significant dose-dependent decrease in fat; also recorded: significant dose dependent decrease in fat”. For the same compound, the “Liver lipid peroxides (TBARS)” value (C57Bl/6 db/db mice; liver homogenates, 21 days) was “reduced”, the “Recruitment of GFP positive leukocytes (anti-inflammatory activity)” value ([1]; 10 μM CuSO4, 55 hpf embryos) was “robust anti-inflammatory agent; also recorded: anti-inflammatory activity” and the “Concentration at which anti-inflammatory activity is detectable” value ([1]; idebenone 0.25-5 μM tested) was “sub micromolar”. The “GFP response of PPARα LT line” value (PPARα) was “robust response; also recorded: dual agonists for PPARα and PPARγ”.
